For data set [1], the system named is MDA-MB-435. Description: Cytotoxicity against human MDA-MB-435 cells at 10 uM after 96 hrs by MTT assay. The format is cell-based. The note with it: mda-mb-435, 96 h.
For data set [2], the system named is Liver. Description: Effect on doxorubicin metabolism in human liver cytosolic fractions assessed as inhibition of formation of doxorubicinol at 30 uM. The class given is ADME, subcellular. The note with it: cytosol.
Data set [3] relates to MDA-MB-435. In words: Effect on drug uptake in human MDA-MB-435 cells in presence of 10 uM verapamil. The format is ADME, cell-based.
Data set [4] is described as follows: Increase in drug uptake in human NCI-ADR-RES cells in presence of 100 uM verapamil. The class given is ADME, cell-based.
Data set [5] can be described thus: Effect on drug efflux in human NCI-ADR-RES cells at 100 nM upto 120 mins. The class given is ADME, cell-based. The note with it: 2 h, 0.1 µM.
Data set [6] concerns MDA-MB-435. Description: Increase in drug uptake in human MDA-MB-435 cells in presence of 100 uM verapamil. The format is ADME, cell-based.
Data set [7] concerns MDA-MB-435. Description: Drug uptake in human MDA-MB-435 cells in presence of 100 uM MK-571. The format is ADME, cell-based.
Data set [8] in a line: Effect on drug uptake in human NCI-ADR-RES cells in presence of 10 uM verapamil. The class given is ADME, cell-based.
The test system of data set [9] is MDA-MB-435. In words: Effect on drug efflux in human MDA-MB-435 cells at 100 nM upto 120 mins. The format is ADME, cell-based. The note with it: mda-mb-435, 2 h, 0.1 µM.
Data set [10] can be described thus: Inhibition of drug efflux in human NCI-ADR-RES cells at 100 nM after 120 mins in presence of 100 uM verapamil. The format is ADME, cell-based. The settings on record: 2 h, 0.1 µM.
For data set [11], the system named is Liver microsomes. In words: Metabolic stability in human liver microsomal fraction assessed as formation of doxorubicin aglycone after 60 mins. The class given is ADME, Microsome. The note with it: 1 h.
Data set [12] has as its system Liver. Description: Metabolic stability in human liver cytosolic fraction assessed as formation of doxorubicinol after 60 mins. The note with it: cytosol, 1 h. The class given is ADME, subcellular.
A short description of data set [13]: Decrease in [14C]DOX accumulation in human NCI-ADR-RES cells at 30 uM after 120 mins. The format is ADME, cell-based. Details: scale not given: the % may be the effect or the level left; call rule not given here. The note with it: 2 h.
Data set [14] can be described thus: Effect on [14C]DOX efflux in human NCI-ADR-RES cells. The format is ADME, cell-based.
In data set [15] the test system is Liver. In words: Effect on doxorubicin metabolism in human liver cytosolic fractions assessed as inhibition of formation of doxorubicinol. The class given is ADME, subcellular, Cytosol.

Each structure is given as a SMILES string.

With `O=C(/C=C/c1ccc(I)cc1)c1c(O)cc(O)cc1O`, the Activity result in data set [1] is given as “Toxic”; in data set [2], “Active”.

As for `COc1cc(O)c2c(c1)O/C(=C\c1ccc(Cl)cc1)C2=O`, in [1], the Activity result is given as “Toxic”.

For the molecule `C[C@@H]1O[C@@H](O[C@H]2C[C@](O)(C(=O)CO)Cc3c(O)c4c(c(O)c32)C(=O)c2c(O[14CH3])cccc2C4=O)C[C@H](N)[C@@H]1O`, the Activity entry was “Not Active” in [3]; 66% in data set [5]; “Not Active” in data set [7]; “Not Active” in data set [8]; 23% in data set [9]; “Active” in [10]. Moreover, the Fold change is given as 7.6 in [4] and 3.7 in data set [6].

`COc1cc(O)c2c(c1)O/C(=C\c1ccccc1)C2=O`: the values for the Activity entry in data set [1] and in data set [2] were “Toxic” and “Active”, respectively.

Take `COc1cc(OC)c2c(c1)O/C(=C\c1cc(OC)c(OC)cc1OC)C2=O`: in [1], the Activity result is given as “Toxic”.

For the molecule `CCc1ccc(/C=C2\Oc3cc(OC)cc(O)c3C2=O)cc1`, in data set [1], the Activity entry is “Toxic”.

Take `COc1cccc2c1C(=O)c1c(O)c3c(c(O)c1C2=O)C[C@@](O)(C(=O)CO)C[C@@H]3O[C@H]1C[C@H](N)[C@H](O)[C@H](C)O1` [DOXORUBICIN]: the Activity in data set [11] was determined as 4.63%; in data set [12], 15.1%.

For the molecule `O=C1C[C@@H](c2ccc(O)c(O)c2)Oc2cc(O)cc(O)c21` [ERIODICTYOL], the Activity result in data set [1] is given as “Toxic”.

Regarding `O=c1c(O)c(-c2ccc(O)c(O)c2)oc2cc(O)ccc12` [FISETIN], the Activity entry in data set [1] is “Toxic”.

`O=c1c(O)c(-c2ccc(O)c(O)c2)oc2cc(O)cc(O)c12` [QUERCETIN]: the Activity is on record as 51.3% in data set [13], “Not Active” in [14] and “Toxic” in data set [1]. In [15], the IC50 is 16.2 µM.

For the origin of these results see ChEMBL document CHEMBL1142305, “The effect of flavonoid derivatives on doxorubicin transport and metabolism” (Bioorg Med Chem, 2008).
